From patent US7303770B2, “Cancer chemoprotective food products” (Johns Hopkins School of Medicine, priority 1997, dated 2007)

Assays:
[1] = tested on: QR activity in Hepa 1c1c7 murine hepatoma cells; assay: Inducer activity: QR induction in Hepa 1c1c7 microtiter bioassay, extracts untreated with myrosinase; format: cell-based; details: without myrosinase hydrolysis
Description: Inducer activity or Phase 2 enzyme-inducing activity is a measure of the ability of a compound(s) to induce Phase 2 enzyme activity. In the present invention, inducer activity is measured by means of the murine hepatoma cell bioassay of QR activity in vitro. Inducer activity is defined herein as QR inducing activity in Hepa 1c1c7 cells (murine hepatoma cells) incubated with extracts of sprouts, seeds or other plant parts untreated with myrosinase. Inducer activity is measured in Hepa 1c1c7 murine hepatoma cells grown in 96-well microtiter plates. Typically 10,000 Hepa 1c1c7 cells are introduced into each well. Hepatoma cells are grown for 24 hours and a plant extract containing microgram quantities of fresh plant tissue is serially diluted across the microtiter plates into fresh culture medium containing 0.15 ml αMEM culture medium amended with 10% Fetal Calf Serum (FCS) and streptomycin and penicillin. The cells are further incubated for 48 hours. QR activity (based on the formation of the blue-brown reduced tetrazolium dye) is measured with an optical microtiter plate scanner in cell lysates prepared in one plate, and related to its protein concentration. Quantitative information on specific activity of QR is obtained by computer analysis of the absorbances. One unit of inducer activity is the amount that when added to a single microtiter well doubles the QR activity. […]

[2] = tested on: QR activity in Hepa 1c1c7 murine hepatoma cells; assay: Inducer potential: QR induction in Hepa 1c1c7 microtiter bioassay, myrosinase-treated extracts; format: cell-based; details: ammonium salts of isolated peaks
Description: Inducer potential or Phase 2 enzyme-inducing potential is a measure of the combined amounts of inducer activity in plant tissue provided by isothiocyanates, plus glucosinolates that can be converted by myrosinase to isothiocyanates. Glucosinolates are not themselves inducers of mammalian Phase 2 enzymes, whereas isothiocyanates are inducers. Inducer potential therefore is defined herein as QR activity in murine 1c1c7 hepatoma cells incubated with myrosinase-treated extracts of the sprouts, seeds or other plant parts. In the present invention therefore inducer potential is measured by means of the murine hepatoma cell bioassay of QR activity in vitro as described above. Inducer potential is measured in Hepa 1c1c7 murine hepatoma cells grown in 96-well microtiter plates. […] Hepatoma cells are grown for 24 hours and a plant extract containing microgram quantities of fresh plant tissue is serially diluted across the microtiter plates into fresh culture medium containing 0.15 ml αMEM culture medium amended with 10% Fetal Calf Serum (FCS) and streptomycin and penicillin. […] QR activity (based on the formation of the blue-brown reduced tetrazolium dye) is measured with an optical microtiter plate scanner in cell lysates prepared in one plate, and related to its protein concentration. Quantitative information on specific activity of QR is obtained by computer analysis of absorbances. […]

[3] = tested on: QR activity in Hepa 1c1c7 murine hepatoma cells; details: reported values, cited from earlier work

Compound	Inducer activity of isolated PIC peaks [1]	Inducer potency after myrosinase hydrolysis [2]	Inducer potency corresponding to reported CD value ([3]; Hepa 1c1c7)	CD value (concentration required to double QR specific activity) ([3]; Hepa 1c1c7 murine hepatoma cells) [µM]
C[S+]([O-])CCCC/C(=N\OS(=O)(=O)O)S[C@@H]1O[C@H](CO)[C@@H](O)[C@H](O)[C@H]1O (single isomer, unassigned; peak a) [Peak A, 4-methylsulfinylbutyl glucosinolate]	no significant inducer activity	36,100 units/μmol	–	–
CSCCCCC(=NOS(=O)(=O)O)S[C@@H]1O[C@H](CO)[C@@H](O)[C@H](O)[C@H]1O (single isomer, unassigned; peak c) [Peak C, 4-methythiobutyl glucosinolate]	no significant inducer activity	4,360 units/μmol	–	–
C[S+]([O-])CCCCN=C=S (stereo not drawn) [sulforaphane]	–	–	33,333 units/μmol	0.2
